SMILES strings stand for the structures.

From BindingDB's records for PubMed 37981443 (National Clinical Research Center for Geriatrics) come the findings set out here.

For experiment [1], the target named is 1-phosphatidylinositol 3-phosphate 5-kinase (Homo sapiens, UniProt Q9Y2I7). In words: Inhibition of N-terminal His-tagged human PIKfyve expressed in Sf9 insect cells incubated for 1 hr by enzyme assay.
For another experiment, the target named is Procathepsin L (Homo sapiens, UniProt P07711). Description: Inhibition of Cathepsin L (unknown origin).
Chain of Procathepsin L (P07711 whole entry): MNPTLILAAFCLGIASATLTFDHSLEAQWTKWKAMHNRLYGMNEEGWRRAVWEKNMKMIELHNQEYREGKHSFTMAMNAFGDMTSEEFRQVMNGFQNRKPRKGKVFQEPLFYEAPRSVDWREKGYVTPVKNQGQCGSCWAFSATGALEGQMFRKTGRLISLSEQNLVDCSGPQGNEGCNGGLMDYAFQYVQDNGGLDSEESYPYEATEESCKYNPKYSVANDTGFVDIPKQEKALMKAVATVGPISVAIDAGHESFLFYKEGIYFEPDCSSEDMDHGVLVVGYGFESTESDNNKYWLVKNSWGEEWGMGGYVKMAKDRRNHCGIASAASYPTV

Chain of 1-phosphatidylinositol 3-phosphate 5-kinase (Q9Y2I7 whole entry): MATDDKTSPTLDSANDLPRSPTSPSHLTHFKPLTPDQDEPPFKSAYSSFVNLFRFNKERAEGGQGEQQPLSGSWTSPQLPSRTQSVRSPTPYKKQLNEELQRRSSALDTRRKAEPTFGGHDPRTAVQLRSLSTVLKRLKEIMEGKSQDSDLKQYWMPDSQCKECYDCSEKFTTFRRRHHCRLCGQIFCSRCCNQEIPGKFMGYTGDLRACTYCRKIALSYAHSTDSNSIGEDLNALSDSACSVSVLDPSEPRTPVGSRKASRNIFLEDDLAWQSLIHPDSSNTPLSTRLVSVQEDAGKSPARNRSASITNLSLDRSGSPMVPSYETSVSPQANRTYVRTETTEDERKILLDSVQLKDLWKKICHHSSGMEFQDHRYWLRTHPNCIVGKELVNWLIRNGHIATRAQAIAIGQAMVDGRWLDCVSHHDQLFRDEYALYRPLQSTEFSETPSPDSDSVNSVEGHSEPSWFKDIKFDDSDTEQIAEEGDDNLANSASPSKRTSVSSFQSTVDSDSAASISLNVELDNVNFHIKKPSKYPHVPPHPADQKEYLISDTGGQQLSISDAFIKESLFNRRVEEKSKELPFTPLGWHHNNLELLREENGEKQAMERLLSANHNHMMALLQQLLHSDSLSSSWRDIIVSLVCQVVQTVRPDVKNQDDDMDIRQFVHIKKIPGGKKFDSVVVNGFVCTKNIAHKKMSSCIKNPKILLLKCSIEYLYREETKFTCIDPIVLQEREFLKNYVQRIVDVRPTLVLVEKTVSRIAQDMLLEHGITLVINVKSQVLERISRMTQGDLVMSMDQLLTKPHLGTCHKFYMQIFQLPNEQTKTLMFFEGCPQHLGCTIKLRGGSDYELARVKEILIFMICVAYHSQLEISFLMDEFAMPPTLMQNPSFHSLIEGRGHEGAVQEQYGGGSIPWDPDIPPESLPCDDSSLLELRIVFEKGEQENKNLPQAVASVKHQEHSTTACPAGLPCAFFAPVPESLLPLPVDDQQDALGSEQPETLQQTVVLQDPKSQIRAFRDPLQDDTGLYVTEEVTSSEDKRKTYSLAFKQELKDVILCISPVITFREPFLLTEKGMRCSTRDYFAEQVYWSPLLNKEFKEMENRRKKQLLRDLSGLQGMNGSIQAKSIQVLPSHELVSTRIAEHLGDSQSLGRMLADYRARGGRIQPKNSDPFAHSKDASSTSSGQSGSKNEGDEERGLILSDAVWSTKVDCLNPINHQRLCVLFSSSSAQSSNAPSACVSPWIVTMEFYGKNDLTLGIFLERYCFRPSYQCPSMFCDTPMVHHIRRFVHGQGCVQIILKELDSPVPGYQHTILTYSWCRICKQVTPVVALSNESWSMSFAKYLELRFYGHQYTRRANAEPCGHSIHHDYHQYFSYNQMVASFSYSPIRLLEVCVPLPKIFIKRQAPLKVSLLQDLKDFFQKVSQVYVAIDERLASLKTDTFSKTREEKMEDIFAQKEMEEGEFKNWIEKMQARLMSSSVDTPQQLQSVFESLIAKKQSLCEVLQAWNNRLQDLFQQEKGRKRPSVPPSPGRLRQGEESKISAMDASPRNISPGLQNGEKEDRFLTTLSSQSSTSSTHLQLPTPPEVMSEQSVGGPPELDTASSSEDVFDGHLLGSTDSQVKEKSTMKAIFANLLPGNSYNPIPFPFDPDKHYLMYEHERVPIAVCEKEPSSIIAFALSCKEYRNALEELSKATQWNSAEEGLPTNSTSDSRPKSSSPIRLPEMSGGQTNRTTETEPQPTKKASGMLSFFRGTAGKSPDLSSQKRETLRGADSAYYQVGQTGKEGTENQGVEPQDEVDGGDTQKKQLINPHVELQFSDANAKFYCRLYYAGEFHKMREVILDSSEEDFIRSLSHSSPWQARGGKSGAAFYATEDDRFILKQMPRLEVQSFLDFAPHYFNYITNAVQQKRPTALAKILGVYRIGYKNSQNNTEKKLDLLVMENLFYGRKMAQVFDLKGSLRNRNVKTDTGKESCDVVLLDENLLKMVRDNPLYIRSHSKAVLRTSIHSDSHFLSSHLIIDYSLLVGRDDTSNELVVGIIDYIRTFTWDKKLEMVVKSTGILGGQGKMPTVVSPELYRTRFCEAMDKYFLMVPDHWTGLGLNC

For the compound `COc1ccc2[nH]c(C)c(/C=C/C(=O)c3ccncc3)c2c1`, the IC50 in experiment [1] stood at 5.1 nM.

As for `CCCC[C@@H](C=O)NC(=O)[C@H](CC(C)C)NC(=O)OCc1ccccc1` [[(S)-1-((S)-1-Formyl-pentylcarbamoyl)-3-methyl-butyl]-carbamic acid benzyl ester], on Procathepsin L, the half-maximal inhibitory concentration (IC50) was 44 nM.
